± gives the expanded uncertainty stated by the source.
Settings: 323.14 K, Liquid, Vibrating tube method

CCCCCCC(=O)OCC(COC(=O)CCCCCC)(COC(=O)CCCCCC)COC(=O)CCCCCC [pentaerythritol tetraheptanoate]
Settings | mass density [kg/m3]
8083.9 kPa | 961.1 ± 1.2
8112.2 kPa | 961 ± 1.2
8146.4 kPa | 961.1 ± 1.2
8174.7 kPa | 961.1 ± 1.2
8204 kPa | 961.1 ± 1.2
8239.5 kPa | 961.1 ± 1.2
8270.3 kPa | 961.2 ± 1.2
8300.6 kPa | 961.1 ± 1.2
8335.1 kPa | 961.2 ± 1.2
8358.1 kPa | 961.3 ± 1.2
8377.9 kPa | 961.3 ± 1.2
8401.4 kPa | 961.2 ± 1.2
8421.2 kPa | 961.3 ± 1.2
8441.4 kPa | 961.4 ± 1.2
8465.3 kPa | 961.4 ± 1.2
8485.9 kPa | 961.3 ± 1.2
8506.7 kPa | 961.3 ± 1.2
8527.9 kPa | 961.3 ± 1.2
8548.6 kPa | 961.4 ± 1.2
8573.6 kPa | 961.4 ± 1.2
8594.5 kPa | 961.5 ± 1.2
8619.3 kPa | 961.5 ± 1.2
8640.2 kPa | 961.3 ± 1.2
8661.6 kPa | 961.4 ± 1.2
8682.6 kPa | 961.4 ± 1.2
9244.8 kPa | 961.9 ± 1.2
9604.8 kPa | 962.1 ± 1.2
9745.2 kPa | 962.3 ± 1.2
9761.3 kPa | 962.2 ± 1.2
9775 kPa | 962.3 ± 1.2
9934.6 kPa | 962.3 ± 1.2
9965.6 kPa | 962.4 ± 1.2
9979.5 kPa | 962.3 ± 1.2
9996.2 kPa | 962.3 ± 1.2
10025 kPa | 962.4 ± 1.2
10042 kPa | 962.3 ± 1.2
10056 kPa | 962.4 ± 1.2
10453 kPa | 962.6 ± 1.2
10957 kPa | 962.9 ± 1.2
10974 kPa | 962.9 ± 1.2
10995 kPa | 963 ± 1.2
11012 kPa | 962.9 ± 1.2
11032 kPa | 963 ± 1.2
11050 kPa | 963.1 ± 1.2
11067 kPa | 963 ± 1.2
11088 kPa | 963 ± 1.2
11123 kPa | 963.1 ± 1.2
11141 kPa | 963.1 ± 1.2
11162 kPa | 963.1 ± 1.2
11180 kPa | 963.2 ± 1.2
11202 kPa | 963.2 ± 1.2
11220 kPa | 963.2 ± 1.2
11238 kPa | 963.3 ± 1.2
11259 kPa | 963.3 ± 1.2
11278 kPa | 963.2 ± 1.2
11296 kPa | 963.2 ± 1.2
11317 kPa | 963.2 ± 1.2
11335 kPa | 963.2 ± 1.2
11354 kPa | 963.2 ± 1.2
11679 kPa | 963.5 ± 1.2
11702 kPa | 963.5 ± 1.2
11722 kPa | 963.5 ± 1.2
11742 kPa | 963.4 ± 1.2
11765 kPa | 963.6 ± 1.2
11786 kPa | 963.6 ± 1.2
11806 kPa | 963.5 ± 1.2
11826 kPa | 963.6 ± 1.2
11850 kPa | 963.7 ± 1.2
11871 kPa | 963.6 ± 1.2
11892 kPa | 963.5 ± 1.2
11914 kPa | 963.6 ± 1.2
11934 kPa | 963.6 ± 1.2
11958 kPa | 963.7 ± 1.2
12004 kPa | 963.6 ± 1.2
12461 kPa | 964 ± 1.2
12560 kPa | 964 ± 1.2
12657 kPa | 963.9 ± 1.2
12708 kPa | 964 ± 1.2
12732 kPa | 964 ± 1.2
12784 kPa | 964.2 ± 1.2
12808 kPa | 964.1 ± 1.2
12962 kPa | 964.3 ± 1.2
12986 kPa | 964.3 ± 1.2
13011 kPa | 964.3 ± 1.2
13041 kPa | 964.2 ± 1.2
13066 kPa | 964.4 ± 1.2
13090 kPa | 964.3 ± 1.2
13120 kPa | 964.4 ± 1.2
13146 kPa | 964.4 ± 1.2
13171 kPa | 964.4 ± 1.2
13202 kPa | 964.3 ± 1.2
13252 kPa | 964.5 ± 1.2
13283 kPa | 964.5 ± 1.2
13308 kPa | 964.4 ± 1.2
13334 kPa | 964.6 ± 1.2
13365 kPa | 964.6 ± 1.2
13391 kPa | 964.5 ± 1.2
13418 kPa | 964.6 ± 1.2
13449 kPa | 964.6 ± 1.2
13475 kPa | 964.7 ± 1.2
13502 kPa | 964.6 ± 1.2
13533 kPa | 964.6 ± 1.2
13560 kPa | 964.7 ± 1.2
13587 kPa | 964.5 ± 1.2
13619 kPa | 964.7 ± 1.2
13645 kPa | 964.7 ± 1.2
13678 kPa | 964.8 ± 1.2
13705 kPa | 964.6 ± 1.2
13732 kPa | 964.8 ± 1.2
13760 kPa | 964.7 ± 1.2
13793 kPa | 964.8 ± 1.2
13822 kPa | 964.8 ± 1.2
13850 kPa | 964.7 ± 1.2
13884 kPa | 964.8 ± 1.2
13912 kPa | 964.9 ± 1.2
13940 kPa | 965 ± 1.2
13969 kPa | 964.9 ± 1.2
14002 kPa | 964.9 ± 1.2
14031 kPa | 964.9 ± 1.2
14065 kPa | 964.9 ± 1.2
14094 kPa | 964.9 ± 1.2
14124 kPa | 965 ± 1.2
14159 kPa | 964.9 ± 1.2
14217 kPa | 964.9 ± 1.2
14254 kPa | 965 ± 1.2
14374 kPa | 965 ± 1.2
14411 kPa | 965.1 ± 1.2
14441 kPa | 965.3 ± 1.2
14478 kPa | 965.2 ± 1.2
14509 kPa | 965.3 ± 1.2
14540 kPa | 965.3 ± 1.2
14571 kPa | 965.2 ± 1.2
14777 kPa | 965.3 ± 1.2
14810 kPa | 965.4 ± 1.2
14849 kPa | 965.5 ± 1.2
14883 kPa | 965.4 ± 1.2
15305 kPa | 965.7 ± 1.2
15364 kPa | 965.8 ± 1.2
15393 kPa | 965.8 ± 1.2
15404 kPa | 965.8 ± 1.2
15412 kPa | 965.8 ± 1.2
15421 kPa | 965.8 ± 1.2
15430 kPa | 965.8 ± 1.2
15440 kPa | 965.9 ± 1.2
15449 kPa | 965.8 ± 1.2
15460 kPa | 965.9 ± 1.2
15468 kPa | 966 ± 1.2
15477 kPa | 965.9 ± 1.2
15488 kPa | 965.8 ± 1.2
15497 kPa | 965.8 ± 1.2
15506 kPa | 965.9 ± 1.2
15514 kPa | 965.8 ± 1.2
15525 kPa | 965.8 ± 1.2
15534 kPa | 966 ± 1.2
15543 kPa | 965.9 ± 1.2
15554 kPa | 965.9 ± 1.2
15563 kPa | 965.9 ± 1.2
15573 kPa | 965.9 ± 1.2
15582 kPa | 966 ± 1.2
15591 kPa | 965.9 ± 1.2
15600 kPa | 966 ± 1.2
15611 kPa | 966 ± 1.2
15620 kPa | 965.9 ± 1.2
15658 kPa | 966.1 ± 1.2
15667 kPa | 966 ± 1.2
15678 kPa | 966 ± 1.2
15687 kPa | 966 ± 1.2
15698 kPa | 966.1 ± 1.2
15716 kPa | 966.2 ± 1.2
15756 kPa | 966.1 ± 1.2
15853 kPa | 966.1 ± 1.2
15873 kPa | 966.2 ± 1.2
15882 kPa | 966.1 ± 1.2
15893 kPa | 966.1 ± 1.2
15912 kPa | 966.1 ± 1.2
15923 kPa | 966 ± 1.2
15933 kPa | 966.2 ± 1.2
15942 kPa | 966.2 ± 1.2
16746 kPa | 966.7 ± 1.2
16758 kPa | 966.5 ± 1.2
16768 kPa | 966.7 ± 1.2
16779 kPa | 966.7 ± 1.2
16792 kPa | 966.6 ± 1.2
16801 kPa | 966.7 ± 1.2
16813 kPa | 966.6 ± 1.2
16924 kPa | 966.8 ± 1.2
16935 kPa | 966.8 ± 1.2
16947 kPa | 966.8 ± 1.2
16960 kPa | 966.9 ± 1.2
16970 kPa | 966.9 ± 1.2
16981 kPa | 966.8 ± 1.2
16993 kPa | 966.8 ± 1.2
17004 kPa | 966.9 ± 1.2
17223 kPa | 966.9 ± 1.2
17236 kPa | 967 ± 1.2
17329 kPa | 967.1 ± 1.2
17342 kPa | 967.1 ± 1.2
17353 kPa | 967.1 ± 1.2
17364 kPa | 967.1 ± 1.2
17378 kPa | 967.1 ± 1.2
17401 kPa | 967 ± 1.2
17522 kPa | 967 ± 1.2
17659 kPa | 967.3 ± 1.2
17673 kPa | 967.2 ± 1.2
17685 kPa | 967.2 ± 1.2
17697 kPa | 967.3 ± 1.2
17708 kPa | 967.1 ± 1.2
17722 kPa | 967.2 ± 1.2
17734 kPa | 967.3 ± 1.2
17784 kPa | 967.3 ± 1.2
17798 kPa | 967.3 ± 1.2
17885 kPa | 967.4 ± 1.2
17912 kPa | 967.5 ± 1.2
17924 kPa | 967.3 ± 1.2
17938 kPa | 967.4 ± 1.2
17950 kPa | 967.5 ± 1.2
18001 kPa | 967.4 ± 1.2
18171 kPa | 967.5 ± 1.2
18199 kPa | 967.5 ± 1.2
18211 kPa | 967.6 ± 1.2
18226 kPa | 967.6 ± 1.2
18239 kPa | 967.6 ± 1.2
18252 kPa | 967.6 ± 1.2

Reference: the NIST ThermoML archive (doi:10.1021/je060271a)
